We go through 36 compounds from patent US12441726B2, “Compounds and uses thereof” (Foghorn Therapeutics Inc., priority 2020, dated 2025).

Assay [1] addresses BRM (Homo sapiens, UniProt P51531). Nature of the assay: ATPase catalytic activity assay (ADP-Glo), BRM. The conditions noted are these: 30 nM BRM, 400 μM ATP; for IC50: BRM ATPase: IC50 (uM). For orientation: ADP-Glo turns the ADP formed in a reaction into a luminescent signal.
The target of assay [2] is BRG-1 (Homo sapiens, UniProt P51532). Nature of the assay: ATPase catalytic activity assay (ADP-Glo), BRG-1. The conditions noted are these: for Emax: 1 h, read-out: BRG1 Max % Inhibition, ADP-Glo, 30 nM BRG-1, 400 μM ATP.
Sequence of BRG-1 (P51532 whole entry): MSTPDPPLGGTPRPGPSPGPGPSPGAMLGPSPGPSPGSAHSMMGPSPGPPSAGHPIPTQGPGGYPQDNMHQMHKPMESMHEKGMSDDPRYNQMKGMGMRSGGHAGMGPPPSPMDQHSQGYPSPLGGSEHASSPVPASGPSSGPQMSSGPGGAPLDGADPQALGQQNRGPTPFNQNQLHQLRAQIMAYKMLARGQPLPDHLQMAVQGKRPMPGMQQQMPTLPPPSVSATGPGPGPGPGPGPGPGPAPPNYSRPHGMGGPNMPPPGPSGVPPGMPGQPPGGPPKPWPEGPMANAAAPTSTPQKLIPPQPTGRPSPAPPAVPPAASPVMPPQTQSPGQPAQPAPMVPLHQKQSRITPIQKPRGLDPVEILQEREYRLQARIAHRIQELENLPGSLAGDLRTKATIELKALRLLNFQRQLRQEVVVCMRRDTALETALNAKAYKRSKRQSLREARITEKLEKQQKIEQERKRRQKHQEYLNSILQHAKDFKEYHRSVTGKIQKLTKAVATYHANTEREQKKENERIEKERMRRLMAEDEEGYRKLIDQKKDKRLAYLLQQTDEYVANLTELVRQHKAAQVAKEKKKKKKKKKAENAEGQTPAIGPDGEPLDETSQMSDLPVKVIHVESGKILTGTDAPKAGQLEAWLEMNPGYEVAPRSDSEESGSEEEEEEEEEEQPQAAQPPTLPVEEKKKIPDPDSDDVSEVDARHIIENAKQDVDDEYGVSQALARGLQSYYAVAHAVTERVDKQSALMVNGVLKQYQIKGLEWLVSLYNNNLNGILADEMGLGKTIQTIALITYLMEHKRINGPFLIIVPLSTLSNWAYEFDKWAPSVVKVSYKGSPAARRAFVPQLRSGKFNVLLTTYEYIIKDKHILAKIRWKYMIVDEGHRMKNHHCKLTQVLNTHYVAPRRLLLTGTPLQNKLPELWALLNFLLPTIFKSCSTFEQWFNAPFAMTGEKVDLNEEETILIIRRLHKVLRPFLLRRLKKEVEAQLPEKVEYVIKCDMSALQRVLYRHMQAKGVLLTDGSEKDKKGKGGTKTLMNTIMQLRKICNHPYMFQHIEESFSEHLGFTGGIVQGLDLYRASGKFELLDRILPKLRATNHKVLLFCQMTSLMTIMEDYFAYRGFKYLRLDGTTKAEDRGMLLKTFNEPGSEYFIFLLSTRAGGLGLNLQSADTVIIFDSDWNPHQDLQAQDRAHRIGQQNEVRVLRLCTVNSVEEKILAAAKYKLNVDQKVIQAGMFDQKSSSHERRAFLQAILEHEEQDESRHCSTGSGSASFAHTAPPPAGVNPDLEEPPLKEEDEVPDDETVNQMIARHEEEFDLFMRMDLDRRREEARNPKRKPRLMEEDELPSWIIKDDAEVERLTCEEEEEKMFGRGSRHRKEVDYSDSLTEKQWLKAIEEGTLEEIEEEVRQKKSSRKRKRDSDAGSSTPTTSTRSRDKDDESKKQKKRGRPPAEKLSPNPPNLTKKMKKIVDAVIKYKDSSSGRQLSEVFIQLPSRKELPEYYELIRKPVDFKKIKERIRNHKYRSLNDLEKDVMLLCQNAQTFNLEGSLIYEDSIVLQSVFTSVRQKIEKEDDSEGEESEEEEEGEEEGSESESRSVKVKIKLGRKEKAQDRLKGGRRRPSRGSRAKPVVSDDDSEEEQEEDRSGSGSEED

Sequence of BRM (P51531 whole entry): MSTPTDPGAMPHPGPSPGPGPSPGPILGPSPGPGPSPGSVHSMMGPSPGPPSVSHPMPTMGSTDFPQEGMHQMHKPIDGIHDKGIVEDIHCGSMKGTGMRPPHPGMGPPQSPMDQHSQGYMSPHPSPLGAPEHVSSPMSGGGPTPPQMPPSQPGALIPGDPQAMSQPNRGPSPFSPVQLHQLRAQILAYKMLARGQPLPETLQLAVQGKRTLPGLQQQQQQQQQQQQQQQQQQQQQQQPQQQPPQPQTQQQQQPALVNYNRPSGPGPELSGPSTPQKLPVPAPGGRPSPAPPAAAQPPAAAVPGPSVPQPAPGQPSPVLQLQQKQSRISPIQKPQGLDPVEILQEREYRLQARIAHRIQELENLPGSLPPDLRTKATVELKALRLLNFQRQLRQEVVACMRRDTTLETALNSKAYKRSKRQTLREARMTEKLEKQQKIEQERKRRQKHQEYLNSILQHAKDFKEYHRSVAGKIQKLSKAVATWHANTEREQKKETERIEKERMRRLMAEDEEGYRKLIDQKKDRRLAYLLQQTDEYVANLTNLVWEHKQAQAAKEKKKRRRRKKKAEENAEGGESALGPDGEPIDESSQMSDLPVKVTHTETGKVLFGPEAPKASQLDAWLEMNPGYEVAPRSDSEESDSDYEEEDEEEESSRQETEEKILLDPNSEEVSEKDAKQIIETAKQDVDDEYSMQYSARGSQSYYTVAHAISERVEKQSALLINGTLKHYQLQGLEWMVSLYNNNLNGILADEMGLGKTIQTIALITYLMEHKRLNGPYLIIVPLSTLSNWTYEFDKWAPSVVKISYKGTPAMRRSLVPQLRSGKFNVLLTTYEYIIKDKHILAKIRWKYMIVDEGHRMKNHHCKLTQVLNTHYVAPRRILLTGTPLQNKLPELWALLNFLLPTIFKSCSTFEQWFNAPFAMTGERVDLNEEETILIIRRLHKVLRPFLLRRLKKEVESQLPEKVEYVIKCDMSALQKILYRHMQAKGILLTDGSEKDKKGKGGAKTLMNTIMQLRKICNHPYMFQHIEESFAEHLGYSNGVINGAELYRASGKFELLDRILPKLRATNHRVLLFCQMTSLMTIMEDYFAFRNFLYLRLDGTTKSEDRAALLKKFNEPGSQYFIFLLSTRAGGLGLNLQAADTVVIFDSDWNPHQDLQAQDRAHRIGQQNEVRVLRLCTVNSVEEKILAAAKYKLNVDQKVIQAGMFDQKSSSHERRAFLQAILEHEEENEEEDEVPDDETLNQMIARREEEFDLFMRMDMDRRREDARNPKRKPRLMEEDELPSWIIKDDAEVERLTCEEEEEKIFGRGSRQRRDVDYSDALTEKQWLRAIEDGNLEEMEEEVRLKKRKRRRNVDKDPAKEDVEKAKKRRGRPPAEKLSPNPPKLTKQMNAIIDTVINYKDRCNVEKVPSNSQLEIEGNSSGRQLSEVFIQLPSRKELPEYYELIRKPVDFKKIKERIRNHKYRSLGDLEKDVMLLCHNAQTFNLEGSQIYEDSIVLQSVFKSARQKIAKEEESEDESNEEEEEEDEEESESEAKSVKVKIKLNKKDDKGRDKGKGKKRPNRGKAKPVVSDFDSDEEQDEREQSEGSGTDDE

With `C[C@@]1(C#N)COCc2ccc(C(=O)NCc3cc(C#Cc4ccccc4)ccn3)cc21` [Compound 1], in assay [1], the “BRM Max % Inhibition” value is 90% and the IC50 was 0.1 to 0.5 µM. In assay [2], the IC50 is greater than 1 µM and the Emax worked out at 56%.
As to `COc1cccc(C#Cc2ccnc(CNC(=O)c3ccc4c(c3)[C@](C)(C#N)COC4)c2)c1` [Compound 2], in assay [1], the “BRM Max % Inhibition” value was 96% and the IC50 lay in the range of 0.1 to 0.5 µM. Further, in assay [2], the IC50 is greater than 1 µM and the Emax came to 65%.
Turning to `COC(=O)c1cccc(C#Cc2ccnc(CNC(=O)c3ccc4c(c3)[C@](C)(C#N)COC4)c2)c1` [Compound 3], in assay [1], the “BRM Max % Inhibition” value was determined as 99% and the IC50 is less than 0.1 µM. Also, in assay [2], the half-inhibitory concentration (IC50) is greater than 1 µM and the Emax stood at 78%.
The matching figures for `C[C@@]1(C#N)COCc2ccc(C(=O)NCc3cc(/C=C/c4ccccc4)ccn3)cc21` [Compound 4]: 97%, 0.1 to 0.5 µM, greater than 1 µM and 74%.
With `COC(=O)N1CCCC(C#Cc2ccnc(CNC(=O)c3ccc4c(c3)[C@](C)(C#N)COC4)c2)C1` (stereo partly drawn) [Compound 5], in assay [1], the “BRM Max % Inhibition” value was found to be 64% and the IC50 is greater than 1 µM. In addition, in assay [2], the IC50 is greater than 1 µM and the Emax came to 12%.
Consider `C[C@@]1(C#N)COCc2ccc(C(=O)NCc3cc(OCc4ccccc4)ccn3)cc21` [Compound 6], for which, in assay [1], the “BRM Max % Inhibition” value was 95% and the IC50 was 0.1 to 0.5 µM. In assay [2], the IC50 is greater than 1 µM and the Emax is 44%.
As to `C[C@@]1(C#N)COCc2ccc(C(=O)NCc3cc([C@H]4C[C@@H]4c4ccccc4)ccn3)cc21` [Compound 7], in assay [1], the “BRM Max % Inhibition” value is recorded as 81% and the IC50 is greater than 1 µM. In addition, in assay [2], the IC50 is greater than 1 µM and the Emax was found to be 12%.
Take `C[C@@]1(C#N)COCc2ccc(C(=O)NCc3cc([C@@H]4C[C@H]4c4ccccc4)ccn3)cc21` [Compound 8]: in assay [1], the “BRM Max % Inhibition” value is 73% and the IC50 was greater than 1 µM. Moreover, in assay [2], the IC50 was greater than 1 µM and the Emax came out at 9%.
Regarding `C[C@@]1(C#N)COCc2ccc(C(=O)NCc3cc(/C(F)=C(\F)c4ccccc4)ccn3)cc21` [Compound 9], in assay [1], the “BRM Max % Inhibition” value came out at 95% and the IC50 lay within 0.1 to 0.5 µM. For the same compound, in assay [2], the IC50 was greater than 1 µM and the Emax was 56%.
The like results for `C[C@@]1(C#N)COCc2ccc(C(=O)NCc3cc(N4CC5(CN(c6ccccc6)C5)C4)ccn3)cc21` [Compound 10] were, in that order, 71%, greater than 1 µM, greater than 1 µM and 30%.
With `C[C@@]1(C#N)COCc2ccc(C(=O)NCc3cc(N4CCC5(C4)CN(c4ccccc4)C5)ccn3)cc21` [Compound 11], in assay [1], the “BRM Max % Inhibition” value is reported as 82% and the IC50 is greater than 1 µM. Besides, in assay [2], the IC50 was greater than 1 µM and the Emax is 26%.
On to `C[C@@]1(C#N)COCc2ccc(C(=O)NCc3cc(N4CC5(CCN(c6ccccc6)C5)C4)ccn3)cc21` [Compound 12], for which, in assay [1], the “BRM Max % Inhibition” value is on record as 79% and the IC50 was greater than 1 µM. Further, in assay [2], the IC50 was greater than 1 µM and the Emax is 22%.
For `O=C(NCc1cc(C#Cc2ccccc2)ccn1)c1cccc(C2(C(F)F)COC2)c1` [Compound 13], in assay [1], the “BRM Max % Inhibition” value was found to be 84% and the IC50 was greater than 1 µM. Moreover, in assay [2], the IC50 is greater than 1 µM and the Emax was 44%.
As for `C[C@@]1(F)COCc2ccc(C(=O)NCc3cc(C#Cc4ccccc4)ccn3)cc21` [Compound 14], in assay [1], the “BRM Max % Inhibition” value stood at 94% and the IC50 was in the range of 0.5 to 1 µM. Also, in assay [2], the IC50 is greater than 1 µM and the Emax was determined as 64%.
Regarding `Cc1cnc(CNC(=O)c2ccc3c(c2)[C@](C)(C#N)COC3)cc1C#Cc1ccccc1` [Compound 15], in assay [1], the “BRM Max % Inhibition” value was 94% and the IC50 fell in the range of 0.5 to 1 µM. Besides, in assay [2], the IC50 is greater than 1 µM and the Emax stood at 64%.
Consider `C[C@@]1(C#N)COCc2ccc(C(=O)NCc3nccc(C#Cc4ccccc4)c3F)cc21` [Compound 16], for which, in assay [1], the “BRM Max % Inhibition” value amounted to 94% and the IC50 is 0.1 to 0.5 µM. Further, in assay [2], the IC50 was greater than 1 µM and the Emax amounted to 51%.
As to `C[C@@]1(C#N)COCc2ccc(C(=O)NCc3cc(C#Cc4cccc(C(F)F)c4)ccn3)cc21` [Compound 17], in assay [1], the “BRM Max % Inhibition” value came out at 94% and the IC50 was 0.1 to 0.5 µM. Also, in assay [2], the IC50 is greater than 1 µM and the Emax is 58%.
In the case of `C[C@@]1(C#N)COCc2ccc(C(=O)NCc3cc([C@H]4C[C@H](c5ccccc5)C4)ccn3)cc21` [Compound 18], in assay [1], the “BRM Max % Inhibition” value was found to be 93% and the IC50 is less than 0.1 µM. Besides, in assay [2], the concentration for half-maximal inhibition (IC50) is greater than 1 µM and the Emax stood at 87%.
For the compound `C[C@@]1(C#N)COCc2ccc(C(=O)NCc3cc([C@H]4C[C@@H](c5ccccc5)C4)ccn3)cc21` [Compound 19], in assay [1], the “BRM Max % Inhibition” value is reported as 97% and the IC50 was 0.1 to 0.5 µM. In assay [2], the IC50 lay in the range of 0.5 to 1 µM and the Emax is 89%.
Consider `C[C@@]1(C#N)COCc2ccc(C(=O)NCc3cc(C#Cc4ccccc4)c(F)cn3)cc21` [Compound 20], for which, in assay [1], the “BRM Max % Inhibition” value is listed as 83% and the IC50 lay in the range of 0.5 to 1 µM. Further, in assay [2], the IC50 is greater than 1 µM and the Emax was found to be 41%.
The matching figures for `COC(=O)N1CCC(C#Cc2ccnc(CNC(=O)c3ccc4c(c3)[C@](C)(C#N)COC4)c2)CC1` [Compound 21]: 78%, greater than 1 µM, greater than 1 µM and 31%.
As for `COC(=O)N1CCC(C#Cc2ccnc(CNC(=O)c3ccc4c(c3)[C@](C)(C#N)COC4)c2)C1` (stereo partly drawn) [Compound 22], in assay [1], the “BRM Max % Inhibition” value was determined as 70% and the IC50 was greater than 1 µM. Besides, in assay [2], the IC50 was greater than 1 µM and the Emax is 31%.
As for `COC(=O)c1cccc(C#Cc2ccnc(CNC(=O)c3ccc4c(c3)[C@](C)(O)COC4)c2)c1` [Compound 23], in assay [1], the “BRM Max % Inhibition” value was found to be 85% and the IC50 was in the range of 0.5 to 1 µM. In addition, in assay [2], the IC50 was greater than 1 µM and the Emax stood at 35%.
`COC(=O)c1cccc(C#Cc2ccnc(CNC(=O)c3ccc4c(c3)[C@](C)(C#N)CCO4)c2)c1` [Compound 24]: in assay [1], the “BRM Max % Inhibition” value stood at 94% and the IC50 is 0.1 to 0.5 µM. In assay [2], the IC50 is greater than 1 µM and the Emax was 65%.
Take `C[C@@]1(C#N)COCc2ccc(C(=O)NCc3cc(CCc4ccccc4)ccn3)cc21` [Compound 25]: in assay [1], the “BRM Max % Inhibition” value stood at 94% and the IC50 was 0.1 to 0.5 µM. In addition, in assay [2], the IC50 is greater than 1 µM and the Emax was 68%.
For the compound `COC(=O)c1cccc(/C=C/c2ccnc(CNC(=O)c3ccc4c(c3)[C@](C)(C#N)COC4)c2)c1` [Compound 26], in assay [1], the “BRM Max % Inhibition” value was 100% and the IC50 is less than 0.1 µM. In addition, in assay [2], the IC50 lay within 0.1 to 0.5 µM and the Emax was found to be 90%.
With `C[C@@]1(C#N)COCc2ccc(C(=O)NCc3cc(/C(F)=C/c4ccccc4)ccn3)cc21` [Compound 27], in assay [1], the “BRM Max % Inhibition” value is given as 97% and the IC50 lay in the range of 0.1 to 0.5 µM. Besides, in assay [2], the IC50 was greater than 1 µM and the Emax was determined as 62%.
As to `C[C@@]1(C#N)COCc2ccc(C(=O)NCc3cc(N4CCc5ccccc5C4)ccn3)cc21` [Compound 28], in assay [1], the “BRM Max % Inhibition” value is 98% and the IC50 is less than 0.1 µM. Also, in assay [2], the IC50 was 0.5 to 1 µM and the Emax came out at 86%.
Consider `C[C@@]1(C#N)COCc2ccc(C(=O)NCc3cc(/C=C(\F)c4ccccc4)ccn3)cc21` [Compound 29], for which, in assay [1], the “BRM Max % Inhibition” value stood at 98% and the IC50 lay in the range of 0.1 to 0.5 µM. In addition, in assay [2], the IC50 is greater than 1 µM and the Emax came to 69%.
For `C[C@@]1(C#N)COCc2ccc(C(=O)NCc3cc(C4CN(c5ccccc5)C4)ccn3)cc21` [Compound 30], in assay [1], the “BRM Max % Inhibition” value is on record as 92% and the IC50 fell in the range of 0.1 to 0.5 µM. Moreover, in assay [2], the IC50 was greater than 1 µM and the Emax was 35%.
For the compound `C[C@@]1(C#N)COCc2ccc(C(=O)NCc3cc(N4Cc5ccccc5C4)ccn3)cc21` [Compound 31], in assay [1], the “BRM Max % Inhibition” value was found to be 96% and the IC50 was 0.1 to 0.5 µM. In assay [2], the IC50 was greater than 1 µM and the Emax turned out to be 73%.
For the compound `C[C@@]1(C#N)COCc2ccc(C(=O)NCc3cc(N4CC(c5ccccc5)C4)ccn3)cc21` [Compound 32], in assay [1], the “BRM Max % Inhibition” value worked out at 89% and the IC50 was greater than 1 µM. For the same compound, in assay [2], the IC50 was greater than 1 µM and the Emax was 55%.
Take `C[C@@]1(C#N)COCc2ccc(C(=O)NCc3nccc(/C=C/c4ccccc4)c3F)cc21` [Compound 33]: in assay [1], the “BRM Max % Inhibition” value amounted to 98% and the IC50 is 0.1 to 0.5 µM. In assay [2], the IC50 was greater than 1 µM and the Emax turned out to be 78%.
`C[C@@]1(C#N)COCc2ccc(C(=O)NCc3cc(OCc4cccc(N5CCC5)n4)ccn3)cc21` [Compound 34]: in assay [1], the “BRM Max % Inhibition” value is 94% and the IC50 fell in the range of 0.1 to 0.5 µM. In assay [2], the IC50 is greater than 1 µM and the Emax was found to be 53%.
Consider `C[C@@]1(C#N)COCc2ccc(C(=O)NCc3cc(OCc4ccccn4)ccn3)cc21` [Compound 36], for which, in assay [1], the “BRM Max % Inhibition” value amounted to 64% and the IC50 is greater than 1 µM. For the same compound, in assay [2], the IC50 was greater than 1 µM and the Emax came to 44%.
Consider `COC(=O)c1cccc(C#Cc2ccnc(CNC(=O)c3ccc4c(c3)[C@](C)(C#N)CO4)c2)c1` [Compound 37], for which, in assay [1], the “BRM Max % Inhibition” value came out at 76% and the IC50 is greater than 1 µM. Also, in assay [2], the IC50 is greater than 1 µM and the Emax amounted to 21%.

A word on the IC50: it is the concentration that gives 50% inhibition. Read a high IC50 as a need for much substance.
